Counter-ions that a name gives are not always drawn.
Tests used:
[1] = tested on: HSA secretion from HepG2 cells; experiment: HSA secretion from HepG2 cells (ELISA of culture media); assay type: cell-based, human; conditions: 16-hour incubation, up to the maximum dose of 20 μM
Description: (§1) HepG2 cells were treated with compound A at the indicated doses for 16 hours. The concentration in the cell culture media of apoB, apoAI and HSA after the incubation period was measured with the appropriate ELISA assay and normalized to total cell protein. The data shown are expressed as a percentage of the control (DMSO only).
(§2) The human hepatoblastoma cell line, HepG2, was obtained from the American Type Culture Collection (Rockville, Md.; ATCC accession no. 8065). Cultures were maintained at 37° C. in a 5% carbon dioxide atmosphere in T-75 culture flasks with 12 mL of RPMI 1640 medium containing 10% fetal bovine serum (all cell culture media and buffers were obtained from GIBCO Life Technologies, Gaithersburg, Md.). Cells were subcultured 1:4 once a week and fed fresh medium 3 times a week.
(§3) Experiments to measure the effects of compounds A and B on protein secretion were carried out in 48-well plates. HepG2 cells were subcultured 1:2 and allowed to come to confluency at least 24 hours before drug treatment. Before commencement of drug treatment, culture medium was removed, the cells washed once with PBS and 1 mL of fresh medium was added quantitatively. […] The cells were homogenized by trituration with a 1 mL micropipettor, and protein was measured using the Coomassie reagent (Pierce Chemical Co, Rockford, Ill.) as described by the manufacturer. […]

[2] = tested on: apoAI secretion from HepG2 cells; experiment: ApoAI secretion from HepG2 cells (ELISA of culture media); assay type: cell-based, human; conditions: 16-hour incubation, up to the maximum dose of 20 μM
Description: as §1, §2, §3

O=C1c2ccccc2CN1C1CCN(CCC(c2ccccc2)c2ccccc2)CC1 [compound A, 2-[1-(3,3-diphenylpropyl)-4-piperdinyl]-2,3-dihydro-3-oxo-1H-isoindole hydrochloride]
secretion of HSA [1]: unaffected
secretion of apoAI [2]: unaffected

Source: US6492365B1, “Microsomal triglyceride transfer protein” (Bristol-Myers Squibb Company, priority 1992, dated 2002)
